Test results from patent US9765329B2, “Adipocyte-targeting non-viral gene delivery system” (INDUSTRY-UNIVERSITY COOPERATION FOUNDATION HANYANG …, priority 2013, dated 2017).
“Also recorded” adds a separate entry of the source. Square brackets hold non-standard residues; d marks the D form. Ends that are not written are not given here. Peptide text beside a SMILES is read from it.

What was measured:
[1] = target: T1, prohibitin (Mus musculus, UniProt P67778); assay: Binding of ATS to prohibitin (immunoprecipitation assay)
T1 construct: endogenous in cells; host or cells: 3T3-L1 preadipocytes and differentiated mature adipocytes (day 10)
T1 sequence (P67778 1-272): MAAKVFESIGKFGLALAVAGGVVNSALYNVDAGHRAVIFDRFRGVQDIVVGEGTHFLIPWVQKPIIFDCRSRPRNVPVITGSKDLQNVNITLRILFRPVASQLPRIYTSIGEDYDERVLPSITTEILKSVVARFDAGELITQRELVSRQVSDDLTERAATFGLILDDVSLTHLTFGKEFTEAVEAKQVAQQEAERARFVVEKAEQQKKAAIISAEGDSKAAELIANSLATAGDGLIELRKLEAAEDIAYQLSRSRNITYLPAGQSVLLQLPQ
Method: (§1) To investigate the location and amount of prohibitin expressed depending on the degree of adipocyte differentiation, two types of adipocytes were treated with rhodamine B-labeled ATS (RhoB-ATS).
(§2) Binding of ATS to prohibitin was determined by an immunoprecipitation assay (FIG. 5a) and the distributions of prohibitin in 3T3-L1 preadipocytes and mature adipocytes were confirmed through the staining results (FIGS. 5b and 5c).

[2] = system: 3T3-L1 preadipocytes; assay: Targeting of rhodamine B-labeled ATS depending on degree of differentiation; format: cell-based; details: RhoB-ATS
Method: as §1, §2

[3] = system: 3T3-L1 mature adipocytes; assay: as above; format: cell-based; details: RhoB-ATS
Method: as §1, §2

[4] = system: diet-induced obesity (DIO) mice; assay: In vivo fat homing (pCLE, Cellvizio); details: FITC-conjugated peptide, tail vein injection, obese mice
Method: C57BL/6J mice at 3 weeks of age were purchased from Central Lab Animal Inc. (Korea). For the first two weeks, the mice were fed 50% normal diet and 50% rodent diet with 60 kcal % from fat. […] The mice became obese after week 14 (body weight>45 g).
FITC conjugated ATS-9R (10 mg/ml) and FITC-9R (10 mg/ml) were diluted in PBS to a final concentration of 1.5 mg/ml and 100 μl of peptide was injected into obese mice by tail vein injection. Immediately after injection, peptide localization in vasculatures of different organs was observed by Cellvizio (Mauna Kea Technologies, France).
In this example, in vivo experiments were conducted using diet-induced obesity (DIO) mice. FITC-ATS-R9 was administered to the obese mice by tail vein injection to observe the targeting of the ATS-R9 to adipose tissue. Tracking was visualized using probe-based confocal laser endomicroscopy (pCLE, Cellvizio).

[5] = system: 3T3-L1 preadipocytes; assay: Internalization of FITC-ATS-R9 into cells (confocal microscopy); format: cell-based
Method: (§3) Cellmask Deep Red was purchased from Invitrogen and DAPI-Fluoromount-G was purchased from Southern Biotech. 3T3-L1 preadipocytes, H9c2, and HEK293 cells were grown and differentiated on coverslips placed in 6 well plates.
(§4) After 24 h of seeding, the cells were treated with the FITC conjugated ATS-R9 (25 μg/ml) and incubated in a time-dependent manner that ranged from 15 min to 72 h.
(§5) After incubation, culture media were replaced, and the cells were washed three times with PBS and fixed in 3.7% formaldehyde. The plasma membranes of the cells were stained with Cellmask Deep Red. The cells were washed again with PBS and mounted in the presence of DAPI to stain the nuclei. Images were captured with a Carl Zeiss confocal microscope.
(§6) To monitor the degree of internalization of ATS-R9 into cells, mature adipocytes and preadipocytes were treated with FITC-labeled ATS-R9 (FITC-ATS-R9) and the delivery of the support to the cells was investigated.

[6] = system: 3T3-L1 differentiated adipocytes; assay: In vitro transfection efficiency (luciferase assay); format: cell-based; details: charge ratio of 5, mature adipocytes at day 10, 72 h
Method: A luciferase assay kit was purchased from Promega (USA). A DC protein assay kit and bovine serum albumin standard were purchased from Bio-Rad Laboratories (USA). 3T3-L1 preadipocytes and differentiated adipocytes were seeded in 24 well plates.
Oligo-peptoplexes were prepared by mixing ATS-9R and 2 μg of luciferase plasmid DNA at a charge ratio of 5. R9 and PEI polyplexes were used as controls and prepared at a charge ratio of 5.
The cell lysates were then scraped, harvested, transferred to 1.5 ml microtubes, and centrifuged for 3 min at 13,000 rpm.
The luminescence of the cell lysates was measured on a 96-well plate luminometer (Berthold Detection Systems, Germany) with 20-second integration and expressed as relative luminescence units (RLU)/mg of cell protein. Protein concentration was determined by the DC protein assay kit with bovine serum albumin standard.
Mature adipocytes at day 10 of differentiation were transfected with p-β-Luci by ATS-R9, R9, and PEI at a charge ratio of 5.
To determine an optimum transfection time point, 3T3-L1 differentiated adipocytes were transfected with luciferase plasmid DNA (p-β-Luci) by ATS-R9 and PEI at a charge ratio of 5 at different days of differentiation.

[7] = Zeta potential and size measurement (DLS); format: physicochemical
Method: 5 μg of luciferase plasmid DNA (p-β-Luci), deionized water, and ATS-R9 (charge ratios: 0.5, 1, 3, 5, 7, and 9) were incubated for 30 min at room temperature to construct oligo-peptoplexes. The mean diameters and surface zeta potentials of the oligo-peptoplexes were measured using DLS equipped with a Zetasizer-Nano ZS (Malvern Instruments, UK).

[8] = system: Fabp4 gene; assay: fabp4 sh-RNA gene silencing (RT-PCR); format: cell-based; details: 3T3-L1 mature adipocytes, 2 μg of fabp4 sh-RNA
Method: First, 3T3-L1 mature adipocytes were transfected with 2 μg of fabp4 sh-RNA by ATS-R9, PEI, and lipofectamine and gene silencing efficiency was measured by RT-PCR. GAPDH was used as an endogenous control. As a result, the Fabp4 gene silencing efficiency was 70% or more (FIG. 15).

[9] = system: 3T3-L1 differentiated adipocytes; assay: Internalization of FITC-ATS-R9 into cells (confocal microscopy); format: cell-based; details: FITC-conjugated ATS-R9 25 μg/ml, adipocytes at day 10
Method: as §3, §4, §5, §6
3T3-L1 differentiated adipocytes (at day 10) were treated with FITC-conjugated ATS-R9 (25 μg/ml) and incubated for predetermined periods. The plasma membranes of the cells were stained with Cellmask Deep Red and the nuclei were counterstained with DAPI. Blue channel (for DAPI) is depicted as white to show nuclear localization of ATS-R9. Images were captured with a confocal laser scanning microscope. Scale bar: 10 μm.

[10] = system: 3T3-L1 differentiated adipocytes; assay: In vitro cytotoxicity (MTT) assay; format: cell-based; details: adipocytes at day 10, 48 h after transfection
Method: (§7) Cell viability was measured by MTT [3-(4,5-dimethylthiazol-2-yl)-2,5-diphenyltetrazolium bromide]assay.
(§8) 3T3-L1 differentiated adipocytes were incubated in 24-well plates. The adipocytes (at day 10) were treated with oligo-peptoplexes prepared by luciferase plasmid DNA, plain DMEM medium, and ATS-9R at predetermined charge ratios. PEI polyplexes were used as the control.
(§9) After 48 h of transfection, 50 μl of MTT reagent was added to 500 μl medium in each well and incubated for 3 h at 37° C. The culture media were removed and 500 μl dimethyl sulfoxide (DMSO) was added to each well and incubated for 20 min at room temperature. Absorbance was measured at 570 nm.
(§10) 3T3-L1 differentiated adipocytes at day 10 were transfected with the oligo-peptoplexes. After 48 h of transfection, cell viability was analyzed by MTT assay (n=6).

[11] = In vitro cytotoxicity (MTT) assay; format: cell-based; details: mouse, 3T3-L1 differentiated adipocytes (day 10); adipocytes at day 10, 48 h after transfection, charge ratio up to 9; read-out: cell viability
Method: as §7, §8, §9, §10

[12] = system: luciferase plasmid DNA (p-β-Luci); assay: Gel retardation assay; format: physicochemical; details: charge ratio of ≧3
Method: 1 μg of luciferase plasmid DNA (p-β-Luci, Promega (USA)), deionized water, and ATS-R9 (charge ratios: 0.25, 0.5, 1, 3, 5, 7, and 9) were incubated for 30 min at room temperature to construct oligo-peptoplexes. The oligo-peptoplexes were subjected to electrophoresis under 0.5% TBE buffer solution in 0.8% agarose gel for 25 min (100 V). Naked DNA was used as a control. The DNA condensation efficiency of the ATS-R9 was compared with that of branched PEI (25 KDa, Sigma, USA).
The condensation efficacy of ATS-R9 was compared with that of branched PEI (25 kDa).
Oligo-peptoplexes were prepared with luciferase plasmid DNA (p-β-Luci), deionized water, and ATS-R9 or PEI with predetermined charge ratios and incubated for 30 min at room temperature.

[13] = Serum protection assay; format: in vitro ADME; details: 50% (vol/vol) mouse serum, 2 h at 37° C., optimum charge ratio
Method: Oligo-peptoplexes were prepared at predetermined charge ratios, mouse serum was added to the polyplexes at a final concentration of 50% (vol/vol), and the samples were incubated for 2 h at 37° C.
For the decomplexation of DNA from the polyplexes after serum incubation, heparin in phosphate-buffered saline (pH 7.4, 0.5 mol/l NaCl) was added to the samples in the presence of 0.01 mol/l EDTA and incubated for 1 h. The samples were loaded in 0.8% agarose gel.

[14] = system: C57BL/6J obese mice; assay: In vivo internalization into adipose tissue and gene expression
Method: FITC-conjugated ATS-R9 was administered to C57BL/6J obese mouse by tail vein injection. Rhodamine-conjugated lectin was injected to stain blood vessels.
FITC-conjugated ATS-R9 was injected into C57BL/6J obese mice and fixed adipose tissue sections were incubated with biotin-conjugated anti-FITC antibody. Cy3-conjugated ExtrAvidin was used for signal amplification thereof. Images were observed using a multiphoton confocal laser scanning microscope.
Finally, in vivo gene expression was confirmed. To this end, red fluorescence protein (RFP) expressing plasmid was concentrated by FITC-ATS-R9 and the oligo-peptoplexes were injected into C57BL/6J obese mice. Non-treated mice were used as controls. Images were observed using a multiphoton confocal laser scanning microscope.

[15] = system: obese adipocytes; assay: Comparison of gene delivery ability (luciferase gene); format: cell-based
Method: The ability of ATS-R9 to deliver luciferase gene to obese adipocytes was evaluated. PEI and lipofectamine were used as controls.
Gene delivery efficacies before and after adipocyte differentiation were compared.
Luciferase was used as a gene to be delivered and scrambled ATS was used as a fat-targeting sequence. The ability of (scrambled ATS)-R9 to deliver the gene to obese adipocytes was compared to that of ATS-R9.

CKGGRAKDC (optionally rhodamine B labeled; Synthetic peptide adipocyte targeting sequence) [ATS, used free or rhodamine B-labeled]
ability to bind to prohibitin [1]: high ability to bind to prohibitin
targeting efficiency to adipocytes before differentiation [2]: not significantly high
targeting efficiency / delivery to obese cells after differentiation [3]: effectively delivered; also recorded: very high

CRRRRRRRRRC (C[dR][dR][dR][dR][dR][dR][dR][dR][dR]C; cysteine pairing not given here) [R9, reference compound]
aggregation in fat pad vasculatures [4]: aggregation was not observed in the fat vasculatures
binding to fat pad microvessels [4]: no binding

C[C@H](NC(=O)[C@H](CCCNC(=N)N)NC(=O)CNC(=O)CNC(=O)[C@H](CCCCN)NC(=O)[C@@H](N)CS)C(=O)N[C@@H](CCCCN)C(=O)N[C@@H](CC(=O)O)C(=O)N[C@@H](CCCNC(=N)N)C(=O)N[C@@H](CCCNC(=N)N)C(=O)N[C@@H](CCCNC(=N)N)C(=O)N[C@@H](CCCNC(=N)N)C(=O)N[C@@H](CCCNC(=N)N)C(=O)N[C@@H](CCCNC(=N)N)C(=O)N[C@@H](CCCNC(=N)N)C(=O)N[C@@H](CCCNC(=N)N)C(=O)N[C@@H](CCCNC(=N)N)C(=O)N[C@@H](CS)C(=O)O [ATS-R9] (H-CKGGRAKDRRRRRRRRRC-OH; N-terminus and C-terminus assumed)
migration to the nuclei observed after [5]: > 48 h
transfection efficiency (luciferase gene expression) [6]: higher transfection efficiency and gene expression efficiency than PEI and R9
size of condensed DNA complex ([7]; ATS-R9 bound to DNA, neutral conditions): ≤ 200 nm
zeta potential ([7]; charge ratio of ≧1 (description)): positive
Fabp4 gene silencing efficiency [8]: ≥ 70%
strong fluorescence signals / steady state maintained [9]: 48 h
time to reach the cytoplasm [9]: ≤ 15 min
time to reach the nuclei [9]: ≤ 1 h
aggregation in fat pad vasculatures [4]: aggregated in the fat pad vasculature
aggregation in the other organs (liver, kidney) [4]: no aggregation was observed
binding to fat pad microvessels [4]: bound to the fat pad microvessels
toxicity to differentiated adipocytes [10]: non-toxicity
viability at 48 h [11]: ≥ 90%
DNA condensation (no DNA migration) [12]: complete DNA condensation
DNA degradation in serum [13]: protected DNA from degradation
internalization into in vivo adipose tissues ([14]; tail vein injection, multiphoton confocal microscopy): penetrated the blood vessels and was gradually internalized into adipocytes
gene delivery efficacy as differentiation into obese adipocytes proceeded ([15]; before and after adipocyte differentiation): increased
gene delivery efficacy to obese adipocytes ([15]; luciferase gene, PEI and lipofectamine as controls): superior to those of the other delivery systems PEI and lipofectamine

FITC-ATS-R9: FITC conjugated ATS-R9 (CKGGRAKDRRRRRRRRRC), SEQ ID NO: 2 (not fully specified (N-terminus); cysteine pairing not given here; also: FITC conjugated, site not given here)
in vivo RFP gene expression ([14]; RFP expressing plasmid concentrated by FITC-ATS-R9): clearly confirmed
adipose tissue homing (immunofluorescence assay) ([14]; anti-FITC antibody, Cy3-ExtrAvidin): confirms the induction
